Source: patent US20130172345A1, “1-ACYL-4-(PHENOXY, BENZYLOXY, OR PHENYLAMINO)-1,2,3,4-TETRAHYDROQUINOLINE DERIVATIVES” (KOWA COMPANY, LTD., priority 2007, published 2013)
Counter-ions that a name gives are not always drawn.

Experiments:
[1] = test system: K562 cells, human proerythroblast cells; experiment: Hemoglobin production in K562 cells (fluorescence of the porphyrin ring); format: cell-based; settings: 144 h, test compound 6 μM, 3+3 days, non-stimulated state = 100%, read-out: production amount of hemoglobin, % of control (6 μM)
Procedure: K562 cells (obtained from ATCC), which are human proerythroblast cells, were seeded at a density of 1×10^5 cells/1 mL on a 24-well plate by using complete medium (RPMI-1640 medium comprising 10% bovine fetal serum). After adding the test compound having 1000× concentration (1 μL), the cells were incubated for three days in a CO2 incubator (37° C., 5% CO2). After exchanging the medium, the cells were further incubated for three days. Then, the cells were collected and counted. After adjusting them to have 3×10^5 cells, the amount of hemoglobin produced in the cells was determined by measuring fluorescence of the porphyrin ring. Specifically, the cells which had been collected by centrifugation were suspended in 2 M oxalic acid solution (500 μL) and boiled for 30 minutes under heating. After cooling the cells, the fluorescence intensity was measured by Fluorescence micro plate reader (Spectra MAX GeminiEM, manufactured by Molecular Devices Corporation) ([…]). When hemoglobin amount in non-stimulated state, i.e., without addition of any compound, was 100%, the production amount of hemoglobin induced by each compound was calculated (% of control).

[2] = test system: HepG2 cells originating from human liver cancer; experiment: EPO production in HepG2 cells (EPO ELISA of culture supernatant, 4% oxygen, 48 hrs); format: cell-based; settings: test compound 3 μM, oxygen 4%, non-stimulated state = 100%, read-out: EPO production amount, % of control (3 μM)
Procedure: HepG2 cells originating from human liver cancer were seeded at a density of 1×10^4 cells per well on a 24-well plate by using minimum essential medium (MEM, manufactured by Sigma) comprising 10% bovine fetal serum. Next day, the medium was exchanged with Dulbecco's modified eagle medium (DMEM, manufactured by Sigma) comprising 10% bovine fetal serum lacking phenol red. Then, the test compound dissolved in DMSO was added thereto to obtain the final concentration of 3 μM or 10 μM while having 400 μl of the medium per well. The cells were incubated for 48 hrs in a CO2 incubator which had been adjusted to have oxygen concentration of 4%, followed by collecting the culture supernatant. The EPO concentration in the culture supernatant was immediately measured by using EPO ELISA kit (manufactured by Roche Diagnostics K.K.). Specific procedures were carried out according to the manufacturer's protocol included in the kit.
When EPO production amount in non-stimulated state, i.e., without addition of any compound, was 100%, the EPO production amount induced by each compound was calculated (% of control).

CC(=O)N1c2c(F)cccc2[C@H](Nc2ccccc2F)C[C@@H]1C (relative stereo) [Compound 4, cis-1-acetyl-8-fluoro-4-[(2-fluorophenyl)amino]-2-methyl-1,2,3,4-tetrahydroquinoline]
activity at 6 µM [1]: 92%
activity at 3 µM [2]: 163%

C[C@H]1C[C@@H](Nc2ccc(F)cc2)c2cc(F)ccc2N1C(=O)C1CCCCC1 (relative stereo) [Compound 6, cis-1-cyclohexanecarbonyl-6-fluoro-4-[(4-fluorophenyl)amino]-2-methyl-1,2,3,4-tetrahydroquinoline]
activity at 6 µM [1]: 326%
activity at 3 µM [2]: 225%

CC(=O)N1c2cc(C#N)ccc2[C@H](Nc2ccccc2)C[C@@H]1C (relative stereo) [Compound 7, cis-1-acetyl-7-cyano-2-methyl-4-phenylamino-1,2,3,4-tetrahydroquinoline]
activity at 6 µM [1]: 260%
activity at 3 µM [2]: 261%

CC(=O)N1c2ccccc2[C@H](Nc2ccccc2F)C[C@@H]1C (relative stereo) [Compound 22, cis-1-acetyl-4-[(2-fluorophenyl)amino]-2-methyl-1,2,3,4-tetrahydroquinoline]
activity at 6 µM [1]: 383%
activity at 3 µM [2]: 150%

CC(=O)N1c2cc(Br)ccc2[C@H](Nc2ccccc2)C[C@@H]1C (relative stereo) [Compound 23, cis-1-acetyl-7-bromo-2-methyl-4-phenylamino-1,2,3,4-tetrahydroquinoline]
activity at 6 µM [1]: 544%
activity at 3 µM [2]: 135%

CC(=O)N1c2ccccc2[C@H](Oc2ccccc2)C[C@@H]1C (relative stereo) [Compound 26, cis-1-acetyl-2-methyl-4-phenoxy-1,2,3,4-tetrahydroquinoline]
activity at 6 µM [1]: 188%
activity at 3 µM [2]: 214%

CC(=O)N1c2ccccc2[C@H](Oc2ccc(F)cc2)C[C@@H]1C (relative stereo) [Compound 27, cis-1-acetyl-4-(4-fluorophenoxy)-2-methyl-1,2,3,4-tetrahydroquinoline]
activity at 6 µM [1]: 281%
activity at 3 µM [2]: 292%

CC(=O)N1c2ccccc2[C@H](Oc2cccc(F)c2)C[C@@H]1C (relative stereo) [Compound 28, cis-1-acetyl-4-(3-fluorophenoxy)-2-methyl-1,2,3,4-tetrahydroquinoline]
activity at 6 µM [1]: 216%
activity at 3 µM [2]: 167%

CC(=O)N1c2ccccc2[C@H](Oc2ccccc2F)C[C@@H]1C (relative stereo) [Compound 29, cis-1-acetyl-4-(2-fluorophenoxy)-2-methyl-1,2,3,4-tetrahydroquinoline]
activity at 6 µM [1]: 201%
activity at 3 µM [2]: 305%

CC(=O)N1c2ccccc2[C@H](Oc2ccc(F)cc2F)C[C@@H]1C (relative stereo) [Compound 30, cis-1-acetyl-4-(2,4-difluorophenoxy)-2-methyl-1,2,3,4-tetrahydroquinoline]
activity at 6 µM [1]: 136%
activity at 3 µM [2]: 339%

CC(=O)N1c2ccccc2[C@H](Oc2ccc(F)c(F)c2)C[C@@H]1C (relative stereo) [Compound 31, cis-1-acetyl-4-(3,4-difluorophenoxy)-2-methyl-1,2,3,4-tetrahydroquinoline]
activity at 6 µM [1]: 156%
activity at 3 µM [2]: 302%

CC(=O)N1c2ccc(F)cc2[C@H](Oc2ccc(F)cc2)C[C@@H]1C (relative stereo) [Compound 34, cis-1-acetyl-4-(4-fluorophenoxy)-6-fluoro-2-methyl-1,2,3,4-tetrahydroquinoline]
activity at 6 µM [1]: 257%
activity at 3 µM [2]: 288%

CC(=O)N1c2ccccc2[C@H](OCc2ccccc2)C[C@@H]1C (relative stereo) [Compound 36, cis-1-acetyl-2-methyl-4-benzyloxy-1,2,3,4-tetrahydroquinoline]
activity at 6 µM [1]: 83%
activity at 3 µM [2]: 114%

CCOC(=O)c1ccc2c(c1)[C@H](Nc1ccc(Cl)cc1)C[C@H](C)N2C(C)=O (relative stereo) [Compound 41, ethyl cis-1-acetyl-4-[(4-chlorophenyl)amino]-2-methyl-1,2,3,4-tetrahydroquinoline-6-carboxylate]
activity at 6 µM [1]: 529%
activity at 3 µM [2]: 119%

CC(=O)N1c2ccc(C)cc2C(Nc2ccc(C)cc2)CC1C (stereo not shown) [Compound 2, 1-acetyl-2,6-dimethyl-4-[(4-methylphenyl)amino]-1,2,3,4-tetrahydroquinoline]
activity at 3 µM [2]: 167%

CC(=O)N1c2ccccc2C(Nc2ccc(O)cc2)CC1C (stereo not drawn) [Compound 24, cis-1-acetyl-4-[(4-hydroxyphenyl)amino]-2-methyl-1,2,3,4-tetrahydroquinoline.hydrochloride]
activity at 3 µM [2]: 117%

CC(=O)N1c2ccccc2C(Nc2ccc(-c3ccccc3)cc2)CC1C (stereo not shown) [Compound 25, 1-acetyl-2-methyl-4-[(1,1′-biphenyl-4-yl)amino]-1,2,3,4-tetrahydroquinoline]
activity at 3 µM [2]: 242%

CC(=O)N1c2ccc(C(N)=O)cc2C(Nc2ccc(Cl)cc2)CC1C (stereo not shown) [Compound 43, 1-acetyl-4-[(4-chlorophenyl)amino]-2-methyl-1,2,3,4-tetrahydroquinoline-6-carboxamide]
activity at 3 µM [2]: 452%

CC(=O)N1c2ccccc2C(Nc2ccccc2C)CC1C (stereo not shown) [Compound 49, 1-acetyl-4-[(2-methylphenyl)amino]-2-methyl-1,2,3,4-tetrahydroquinoline]
activity at 3 µM [2]: 271%

CC(=O)N1c2ccccc2C(Nc2cccc(C)c2)CC1C (stereo not shown) [Compound 50, 1-acety1-4-[(3-methylphenyl)amino]-2-methyl-1,2,3,4-tetrahydroquinoline]
activity at 3 µM [2]: 289%

CC(=O)N1c2ccccc2C(Nc2ccc(C)cc2)CC1C (stereo not shown) [Compound 51, 1-acety1-4-[(4-methylphenyl)amino]-2-methyl-1,2,3,4-tetrahydroquinoline]
activity at 3 µM [2]: 239%

CC(=O)N1c2ccccc2C(Nc2ccc(C(F)(F)F)cc2)CC1C (stereo not shown) [Compound 52, 1-acetyl-2-methyl-4-[(4-trifluoromethylphenyl)amino]-1,2,3,4-tetrahydroquinoline]
activity at 3 µM [2]: 314%

CC(=O)N1c2ccccc2C(Oc2ccc(N3CCOCC3)cc2)CC1C (stereo not shown) [Compound 55, 1-acetyl-4-(4-morpholinophenoxy)-2-methyl-1,2,3,4-tetrahydroquinoline]
activity at 3 µM [2]: 134%

CCOC(=O)Cc1ccc(NC2CC(C)N(C(C)=O)c3ccccc32)cc1 (stereo not shown) [Compound 70, 1-acetyl-4-[(4-ethoxycarbonylmethylphenyl)amino]-2-methyl-1,2,3,4-tetrahydroquinoline]
activity at 3 µM [2]: 165%

CC(=O)N1c2ccc(N3CCN(S(C)(=O)=O)CC3)cc2C(Nc2ccc(Cl)cc2)CC1C (stereo not shown) [Compound 80, 1-acetyl-6-[(4-methanesulfonyl)piperazino]-4-[(4-chlorophenyl)amino]-2-methyl-1,2,3,4-tetrahydroquinoline]
activity at 3 µM [2]: 219%

CC(=O)N1c2ccc(N3CCN(C(C)C)CC3)cc2C(Nc2ccc(Cl)cc2)CC1C (stereo not shown) [Compound 81, 1-acetyl-4-[(4-chlorophenyl)amino]-6-[(4-isopropyl)piperazino]-2-methyl-1,2,3,4-tetrahydroquinoline]
activity at 3 µM [2]: 234%

CC(=O)N1c2ccc(N3CC(C)OC(C)C3)cc2C(Nc2ccc(NS(C)(=O)=O)cc2)CC1C (stereo not drawn) [Compound 110, 1-acetyl-6-[cis-2,6-dimethylmorpholin-4-yl]-4-[(4-methanesulfonylaminophenyl)amino]-2-methyl-1,2,3,4-tetrahydroquinoline.2 hydrochloride]
activity at 6 µM [1]: 211%

CC(=O)N1c2ccc(C(=O)NN)cc2C(Nc2ccc(Cl)cc2)CC1C (stereo not shown) [Compound 115, 1-acetyl-4-[(4-chlorophenyl)amino]-2-methyl-1,2,3,4-tetrahydroquinoline-6-carbohydrazide]
activity at 6 µM [1]: 163%

CC(=O)N1c2ccc(C#N)cc2C(Nc2ccc(Cl)cc2)CC1C (stereo not shown) [Compound 117, 1-acetyl-4-[(4-chlorophenyl)amino]-6-cyano-2-methyl-1,2,3,4-tetrahydroquinoline]
activity at 3 µM [2]: 204%

CONC(=O)c1ccc2c(c1)C(Nc1ccc(Cl)cc1)CC(C)N2C(C)=O (stereo not shown) [Compound 118, 1-acetyl-4-[(4-chlorophenyl)amino]-N-methoxy-2-methyl-1,2,3,4-tetrahydroquinoline-6-carboxamide.hydrochloride]
activity at 3 µM [2]: 138%

CC(=O)N1c2ccc(-c3nc(=O)o[nH]3)cc2C(Nc2ccc(Cl)cc2)CC1C (stereo not shown) [Compound 120, 1-acetyl-4-[(4-chlorophenyl)amino]-2-methyl-6-[1,2,4-oxadiazol-5(2H)-on-3-yl]-1,2,3,4-tetrahydroquinoline]
activity at 6 µM [1]: 188%

CC(=O)N1c2ccc(F)cc2C(Nc2ccc(CC(=O)O)cc2)CC1C (stereo not shown) [Compound 123, 1-acetyl-4-[(4-carboxymethylphenyl)amino]-6-fluoro-2-methyl-1,2,3,4-tetrahydroquinoline]
activity at 3 µM [2]: 142%
